The source of these data is patent publication US12358886B2, “Heterocyclic compounds for use in the treatment of cancer” (Artios Pharma Limited, priority 2019, dated 2025).

In the experiment the target is Polθ protein (amino acids 2-2590) (Homo sapiens, UniProt O75417). As to the kind of experiment: Polθ full length enzyme potency assay (PicoGreen). Particulars: full length N-His, C-term FLAG tagged Polθ, PicoGreen fluorescence, 12 point concentration response.

Broadly, the IC50 is the concentration needed to halve the response being measured.

Like-named read-outs stand apart in the source and are kept apart here.

Polθ protein (amino acids 2-2590), sequence (O75417 2-2590): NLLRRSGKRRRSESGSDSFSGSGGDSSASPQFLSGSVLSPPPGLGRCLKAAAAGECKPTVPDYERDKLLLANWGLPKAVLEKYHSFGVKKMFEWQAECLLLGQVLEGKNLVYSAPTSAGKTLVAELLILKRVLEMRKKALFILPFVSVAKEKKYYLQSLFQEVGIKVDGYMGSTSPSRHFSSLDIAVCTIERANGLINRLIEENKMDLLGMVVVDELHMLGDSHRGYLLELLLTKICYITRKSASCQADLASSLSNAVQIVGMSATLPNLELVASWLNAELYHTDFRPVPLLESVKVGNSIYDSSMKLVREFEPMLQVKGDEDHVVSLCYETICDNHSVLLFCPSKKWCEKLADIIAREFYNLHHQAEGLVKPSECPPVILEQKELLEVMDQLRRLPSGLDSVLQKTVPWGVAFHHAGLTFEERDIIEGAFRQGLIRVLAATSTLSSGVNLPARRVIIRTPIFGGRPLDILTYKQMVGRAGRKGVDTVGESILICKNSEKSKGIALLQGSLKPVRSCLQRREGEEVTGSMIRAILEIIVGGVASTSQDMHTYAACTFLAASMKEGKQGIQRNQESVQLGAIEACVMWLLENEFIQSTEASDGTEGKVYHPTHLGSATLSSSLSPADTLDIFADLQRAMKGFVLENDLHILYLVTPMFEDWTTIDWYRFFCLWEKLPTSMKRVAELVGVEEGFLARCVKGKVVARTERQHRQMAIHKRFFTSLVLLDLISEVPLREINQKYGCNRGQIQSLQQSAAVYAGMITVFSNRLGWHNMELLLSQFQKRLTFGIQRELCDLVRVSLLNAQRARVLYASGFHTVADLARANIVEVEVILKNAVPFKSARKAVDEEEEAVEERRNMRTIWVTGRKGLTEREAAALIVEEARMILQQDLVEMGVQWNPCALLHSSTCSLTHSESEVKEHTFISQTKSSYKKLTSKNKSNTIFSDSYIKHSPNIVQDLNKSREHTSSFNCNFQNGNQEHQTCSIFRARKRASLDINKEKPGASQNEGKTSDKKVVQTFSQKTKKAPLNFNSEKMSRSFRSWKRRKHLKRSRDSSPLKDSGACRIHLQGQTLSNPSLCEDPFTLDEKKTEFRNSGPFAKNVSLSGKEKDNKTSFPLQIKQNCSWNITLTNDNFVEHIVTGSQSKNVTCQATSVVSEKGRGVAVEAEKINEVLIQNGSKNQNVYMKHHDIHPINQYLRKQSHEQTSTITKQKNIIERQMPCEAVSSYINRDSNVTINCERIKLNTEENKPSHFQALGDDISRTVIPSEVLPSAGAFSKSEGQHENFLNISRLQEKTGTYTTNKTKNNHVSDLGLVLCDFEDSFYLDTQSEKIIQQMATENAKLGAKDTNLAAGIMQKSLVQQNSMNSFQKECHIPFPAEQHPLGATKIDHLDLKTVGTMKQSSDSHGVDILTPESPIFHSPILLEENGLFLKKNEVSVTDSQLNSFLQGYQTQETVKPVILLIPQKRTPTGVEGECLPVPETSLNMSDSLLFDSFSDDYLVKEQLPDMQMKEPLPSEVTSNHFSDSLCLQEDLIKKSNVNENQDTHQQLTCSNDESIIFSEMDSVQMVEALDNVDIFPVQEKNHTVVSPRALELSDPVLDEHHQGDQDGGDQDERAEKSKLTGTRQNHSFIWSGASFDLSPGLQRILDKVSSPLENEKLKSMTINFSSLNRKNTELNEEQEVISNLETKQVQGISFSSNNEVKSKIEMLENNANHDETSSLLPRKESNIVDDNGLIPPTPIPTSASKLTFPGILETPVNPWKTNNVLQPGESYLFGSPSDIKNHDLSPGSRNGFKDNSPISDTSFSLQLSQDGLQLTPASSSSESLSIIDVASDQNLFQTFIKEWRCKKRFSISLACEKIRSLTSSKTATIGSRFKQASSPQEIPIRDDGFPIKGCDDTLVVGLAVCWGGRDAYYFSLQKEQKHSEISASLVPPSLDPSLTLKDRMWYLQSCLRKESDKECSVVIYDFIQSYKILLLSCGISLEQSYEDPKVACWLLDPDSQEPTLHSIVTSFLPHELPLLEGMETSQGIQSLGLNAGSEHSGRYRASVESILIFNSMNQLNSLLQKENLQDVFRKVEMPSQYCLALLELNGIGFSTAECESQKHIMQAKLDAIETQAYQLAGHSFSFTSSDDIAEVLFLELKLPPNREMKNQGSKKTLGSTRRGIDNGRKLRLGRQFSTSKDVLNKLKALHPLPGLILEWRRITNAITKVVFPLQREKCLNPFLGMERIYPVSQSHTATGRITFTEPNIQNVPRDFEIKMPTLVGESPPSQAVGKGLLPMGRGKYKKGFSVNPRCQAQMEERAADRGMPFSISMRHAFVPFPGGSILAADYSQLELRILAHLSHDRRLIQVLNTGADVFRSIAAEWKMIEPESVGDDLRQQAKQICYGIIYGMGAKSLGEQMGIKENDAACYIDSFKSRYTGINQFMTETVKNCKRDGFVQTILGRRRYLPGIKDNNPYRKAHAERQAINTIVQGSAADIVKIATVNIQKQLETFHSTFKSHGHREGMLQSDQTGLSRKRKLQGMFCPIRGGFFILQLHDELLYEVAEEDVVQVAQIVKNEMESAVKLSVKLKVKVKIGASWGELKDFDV

Under “Polθ IC50 (nM)”, `Cc1cccc(N(C)C(=O)[C@@H]2[C@H](O)CCN2c2nc(C)cc(C)c2C#N)c1` [Example 25, (2S,3R)-1-(3-Cyano-4,6-dimethylpyridin-2-yl)-3-hydroxy-N-methyl-N-(m-tolyl)pyrrolidine-2-carboxamide] registered an IC50 of 32 nM.

Where the note is “Polθ IC50 (nM)”, `Cc1cc(C(F)(F)F)cc(N2C(=O)[C@@H](CO)C[C@H]2C(=O)N(C)c2ccc(F)c(Cl)c2)n1` [Example 77, (2S,4R)—N-(3-Chloro-4-fluorophenyl)-4-(hydroxymethyl)-N-methyl-1-(6-methyl-4-(trifluoromethyl)pyridin-2-yl)-5-oxopyrrolidine-2-carboxamide] had an IC50 of 11 nM. Under “Polθ IC50 (nM)”, `CCN(C(=O)[C@@H]1C[C@H](NC2COC2)CN1c1cc(C(F)(F)F)cc(C)n1)c1ccc(F)c(F)c1` [Example 138, (2S,4S)-N-(3,4-Difluorophenyl)-N-ethyl-1-(6-methyl-4-(trifluoromethyl)pyridin-2-yl)-4-(oxetan-3-ylamino)pyrrolidine-2-carboxamide] had an IC50 of 165 nM. On to `CCN(C(=O)[C@@H]1C[C@H](N2CCOC[C@@H]2CO)CN1c1nc(C)cc(C(F)(F)F)c1C#N)c1ccc(F)c(Cl)c1` [Example 152, (2S,4S)-N-(3-Chloro-4-fluorophenyl)-1-(3-cyano-6-methyl-4-(trifluoromethyl)pyridin-2-yl)-N-ethyl-4-((S)-3-(hydroxymethyl)morpholino)pyrrolidine-2-carboxamide], for which the IC50 (Polθ IC50 (nM)) is 26 nM. For `Cc1cc(C(F)(F)F)cc(N2C(=O)[C@@H](O)[C@@H](O)[C@H]2C(=O)N(C)c2ccc(F)c(C)c2)n1` [Example 67, (2S,3S,4S)-N-(4-Fluoro-3-methyl-phenyl)-3,4-dihydroxy-N-methyl-1-(6-methyl-4-(trifluoromethyl)pyridin-2-yl)-5-oxopyrrolidine-2-carboxamide], half-maximal inhibition (Polθ IC50 (nM)) (IC50) required 6 nM. Where the note is “Polθ IC50 (nM)”, `Cc1cc(C(C)C)cc(N2C(=O)OC[C@H]2C(=O)N(C)c2ccc(F)c(Cl)c2)n1` [Example 118, (S)—N-(3-Chloro-4-fluorophenyl)-3-(4-isopropyl-6-methylpyridin-2-yl)-N-methyl-2-oxooxazolidine-4-carboxamide] showed an IC50 of 25 nM. For the compound `CCN(C(=O)[C@@H]1C[C@H](N(C)[C@H]2CN(C(=O)OC(C)(C)C)C[C@H]2O)CN1c1cc(C(F)(F)F)cc(C)n1)c1ccc(F)c(F)c1` [Example 144, tert-Butyl (3S,4R)-3-(((3S,5S)-5-((3,4-difluorophenyl)(ethyl)carbamoyl)-1-(6-methyl-4-(trifluoromethyl)pyridin-2-yl)pyrrolidin-3-yl)(methyl)amino)-4-hydroxypyrrolidine-1-carboxylate], the IC50 (Polθ IC50 (nM)) was 1310 nM.

`CCN(C(=O)[C@H]1C[C@@H](NC)CN1c1nc(C)cc(C)c1C#N)c1cccc(C)c1` (stereo in doubt) [Example 43, (2R,4R)-1-(3-Cyano-4,6-dimethylpyridin-2-yl)-N-ethyl-4-(methylamino)-N-(m-tolyl)-pyrrolidine-2-carboxamide]: the IC50 (Polθ IC50 (nM)) came out at 221 nM. As for `CCN(C(=O)[C@@H]1C[C@H](NC2CNC(=O)C2)CN1c1cc(C(F)(F)F)cc(C)n1)c1ccc(F)c(F)c1` (stereo partly drawn) [Example 137, (2S,4S)-N-(3,4-Difluorophenyl)-N-ethyl-1-(6-methyl-4-(trifluoromethyl)pyridin-2-yl)-4-((5-oxopyrrolidin-3-yl)amino)pyrrolidine-2-carboxamide], the IC50 (Polθ IC50 (nM)) came out at 300 nM. Consider `Cc1cc(C(F)(F)F)cc(N2C(=O)OC[C@H]2C(=O)N(C)c2cccc(Cl)c2)n1` [Example 87, (S)-N-(3-Chlorophenyl)-N-methyl-3-(6-methyl-4-(trifluoromethyl)pyridin-2-yl)-2-oxooxazolidine-4-carboxamide], for which, for the setting “read-out: Polθ IC50”, the concentration for half-maximal inhibition (IC50) was 15 nM. For `Cc1cc(C(F)(F)F)cc(N2C(=O)N(CCN3CC(O)C3)C[C@H]2C(=O)N(C)c2ccc(F)c(Cl)c2F)n1` [Example 202, (S)-N-(3-Chloro-2,4-difluorophenyl)-1-(2-(3-hydroxyazetidin-1-yl)ethyl)-N-methyl-3-(6-methyl-4-(trifluoromethyl)pyridin-2-yl)-2-oxoimidazolidine-4-carboxamide], the midpoint of inhibition (Polθ IC50 (nM)), the IC50, lay at 7 nM.

With `Cc1cc(C(F)(F)F)cc(N2C(=O)[C@@H](O)C[C@H]2C(=O)N(C)c2ccc(F)c(Cl)c2)n1` [Example 74, (2S,4S)—N-(3-Chloro-4-fluorophenyl)-4-hydroxy-N-methyl-1-(6-methyl-4-(trifluoromethyl)-pyridin-2-yl)-5-oxopyrrolidine-2-carboxamide], the half-inhibitory concentration (IC50) (read-out: Polθ IC50) turned out to be 25 nM. In turn, `Cc1cc(C(F)(F)F)cc(N2C(=O)N(CCN3CCN(C)C(=O)C3)C[C@H]2C(=O)N(C)c2ccc(F)c(Cl)c2F)n1` [Example 210, (S)-N-(3-Chloro-2,4-difluorophenyl)-N-methyl-1-(2-(4-methyl-3-oxopiperazin-1-yl)ethyl)-3-(6-methyl-4-(trifluoromethyl)pyridin-2-yl)-2-oxoimidazolidine-4-carboxamide] came in with an IC50 (Polθ IC50 (nM)) of 7 nM.

Turning to `Cc1cc(C(F)(F)F)cc(N2C(=O)N(CCN3CCC3)C[C@H]2C(=O)N(C)c2ccc(F)c(Cl)c2F)n1` [Example 201, (S)-1-(2-(Azetidin-1-yl)ethyl)-N-(3-chloro-2,4-difluorophenyl)-N-methyl-3-(6-methyl-4-(trifluoromethyl)-pyridin-2-yl)-2-oxoimidazolidine-4-carboxamide], the midpoint of inhibition (Polθ IC50 (nM)), the IC50, lay at 26 nM. In the case of `CCN(C(=O)[C@@H]1C[C@H](N)CN1c1nc(C)cc(C)c1C#N)c1cccc(C)c1` [Example 38, (2S,4S)-4-Amino-1-(3-cyano-4,6-dimethylpyridin-2-yl)-N-ethyl-N-(m-tolyl)pyrrolidine-2-carboxamide], the IC50 (Polθ IC50 (nM)) stood at 273 nM. Compound `CCN(C(=O)[C@@H]1C[C@H](N(C)[C@H]2CCC[C@H]2O)CN1c1cc(C(F)(F)F)cc(C)n1)c1ccc(F)c(F)c1` [Example 142, (2S,4S)-N-(3,4-Difluorophenyl)-N-ethyl-4-(((1S,2R)-2-hydroxycyclopentyl)(methyl)amino)-1-(6-methyl-4-(trifluoromethyl)pyridin-2-yl)pyrrolidine-2-carboxamide] gave an IC50 (Polθ IC50 (nM)) of 160 nM.

For `Cc1cc(OC(F)F)cc(N2C(=O)OC[C@H]2C(=O)N(C)c2ccc(F)c(Cl)c2)n1` [Example 121, (S)—N-(3-Chloro-4-fluorophenyl)-3-(4-(difluoromethoxy)-6-methylpyridin-2-yl)-N-methyl-2-oxooxazolidine-4-carboxamide], the IC50 (Polθ IC50 (nM)) came out at 167 nM. Regarding `Cc1cc(C)c(C#N)c(N2C[C@@H](O)C[C@H]2C(=O)N(C)c2cccc(Cl)c2)n1` [Example 13, (2S,4S)-N-(3-Chlorophenyl)-1-(3-cyano-4,6-dimethylpyridin-2-yl)-4-hydroxy-N-methylpyrrolidine-2-carboxamide], the concentration for half-maximal inhibition (IC50) (Polθ IC50 (nM)) worked out at 180 nM. In the case of `Cc1cc(C(F)(F)F)cc(N2C(=O)N(CCS(C)(=O)=O)C[C@H]2C(=O)N(C)c2ccc(F)c(Cl)c2)n1` [Example 180, (S)—N-(3-Chloro-4-fluorophenyl)-N-methyl-3-(6-methyl-4-(trifluoromethyl)pyridin-2-yl)-1-(2-(methylsulfonyl)ethyl)-2-oxoimidazolidine-4-carboxamide], the IC50 (Polθ IC50 (nM)) was found to be 9 nM. As to `CCN(C(=O)[C@@H]1C[C@H](N(C)[C@@H]2CN(C(=O)OC(C)(C)C)C[C@H]2O)CN1c1cc(C(F)(F)F)cc(C)n1)c1ccc(F)c(F)c1` (racemic) [Example 143, rac-tert-Butyl (3R,4R)-3-(((3S,5S)-5-((3,4-difluorophenyl)(ethyl)carbamoyl)-1-(6-methyl-4-(trifluoromethyl)pyridin-2-yl)pyrrolidin-3-yl)(methyl)amino)-4-hydroxypyrrolidine-1-carboxylate], 409 nM corresponded to half-maximal inhibition (Polθ IC50 (nM)) (IC50). With `CCN(C(=O)[C@@H]1C[C@H](N2CCOCC2)C(=O)N1c1cc(C(F)(F)F)cc(C)n1)c1ccc(F)c(Cl)c1` [Example 63, (2S,4S)—N-(3-Chloro-4-fluorophenyl)-N-ethyl-1-(6-methyl-4-(trifluoro-methyl)pyridin-2-yl)-4-morpholino-5-oxopyrrolidine-2-carboxamide], where the note is “Polθ IC50 (nM)”, the IC50 is 410 nM. Still for that read-out and setting: to `COc1cc(C(F)(F)F)c(C#N)c(N2C[C@@H](O)C[C@H]2C(=O)N(C)c2cccc(C)c2)n1` [Example 30, (2S,4S)-1-(3-Cyano-6-methoxy-4-(trifluoromethyl)pyridin-2-yl)-4-hydroxy-N-methyl-N-(m-tolyl)pyrrolidine-2-carboxamide] belongs 514 nM. `CCN(C(=O)[C@H]1C[C@@H](N2CCNCC2)CN1c1nc(C)cc(C)c1C#N)c1cccc(C)c1` (stereo in doubt) [Example 50, (2R,4R)-1-(3-Cyano-4,6-dimethylpyridin-2-yl)-N-ethyl-4-(piperazin-1-yl)-N-(m-tolyl)-pyrrolidine-2-carboxamide]: inhibition (Polθ IC50 (nM)) was half-maximal at 232 nM (IC50). On the same count and under the same terms, to `Cc1cc(C(F)(F)F)cc(N2C(=O)[C@@H](COCc3ccccc3)C[C@H]2C(=O)N(C)c2ccc(F)c(Cl)c2)n1` [Example 76, (2S,4R)-4-((Benzyloxy)methyl)-N-(3-chloro-4-fluorophenyl)-N-methyl-1-(6-methyl-4-(trifluoromethyl)pyridin-2-yl)-5-oxopyrrolidine-2-carboxamide] belongs 24 nM; to `Cc1cc(C)c(C#N)c(N2C[C@@H](O)C[C@H]2C(=O)N(C)c2ccc(F)c(C(F)(F)F)c2)n1` [Example 10, (2S,4S)-1-(3-Cyano-4,6-dimethylpyridin-2-yl)-N-(4-fluoro-3-(trifluoromethyl)phenyl)-4-hydroxy-N-methylpyrrolidine-2-carboxamide], 316 nM. Consider `Cc1cc(C(F)(F)F)c(C#N)c(N2C[C@@H](O)C[C@H]2C(=O)N(C)c2ccc(F)c(Cl)c2)n1` [Example 5, (2S,4S)—N-(3-Chloro-4-fluorophenyl)-1-(3-cyano-6-methyl-4-(trifluoro-methyl)pyridin-2-yl)-4-hydroxy-N-methylpyrrolidine-2-carboxamide], for which the concentration for half-maximal inhibition (IC50) (read-out: Polθ IC50) was 16 nM.

`Cc1cc(C(F)(F)F)c(C#N)c(N2[C@H](C)CC[C@H]2C(=O)N(C)c2ccc(F)c(Cl)c2)n1` [Example 241, (2S,5R)—N-(3-Chloro-4-fluorophenyl)-1-(3-cyano-6-methyl-4-(trifluoromethyl)pyridin-2-yl)-N,5-dimethylpyrrolidine-2-carboxamide] returned an IC50 (Polθ IC50 (nM)) of 240 nM.
